{"source": "patent US20110165565A1", "about": "“COMPOSITIONS AND METHODS FOR POLYNUCLEOTIDE EXTRACTION AND METHYLATION DETECTION” (THE JOHNS HOPKINS UNIVERSITY, priority 2008, published 2011)", "test_system": "p16 promoter methylation in colorectal cancer cell line RKO", "test": "MS-qFRET quantification of p16 methylation reversal in RKO cells treated with DAC", "assay_type": "cell-based", "excerpt": "The quantitative ability of MS-qFRET was further tested in cell lines and in patient samples as a function of response to a DNA demethylating agent. Reversal of methylation in the colorectal cancer cell line, RKO, was quantified at specific time points after treatment with 5-aza-2′-deoxycytidine (DAC). […] Since DNA replication is necessary for incorporation of DAC into DNA, reversal of methylation may be best observed only after inhibition of DNA methyltransferases due to cell cycling. The low amount of methylation reversal in the initial 24 to 36 hours could be attributed to the 22 hour doubling time for RKO cells.\n(ID and IA corresponding to donor and acceptor intensity)."}
{"smiles": "Nc1ncn([C@H]2C[C@H](O)[C@@H](CO)O2)c(=O)n1", "note": "[5-aza-2′-deoxycytidine (DAC), 5-aza-2′-deoxycytidine]", "values": [{"measurement": "q-score, level of p16 methylation post-treatment", "setting": "DNA from RKO cells treated with DAC for different time points (FIG. 3C)", "result": "drop in the level of methylation"}, {"measurement": "time of maximal reversal of methylation at p16", "setting": "RKO cells, 1 μM DAC, post-treatment", "result": 60, "unit": "h"}]}
